Measured values taken from ChEMBL document CHEMBL5727531, “TrkA kinase inhibitors, compositions and methods thereof” (2020).

Molecular target: High affinity nerve growth factor receptor (Homo sapiens, UniProt P04629)
Assay: Biological Assay: TrkA functional activity was measured using a DiscoverX PathHunter assay. In this assay, U2OS cells express the human TrkA receptor as a fusion with the weakly complementing fragment of B-galactosidase, which DiscoverX calls Prolink (PK); additionally, Shc1 is fused with a larger fragment, which is called Enzyme Acceptor (EA). Activation of the TrkA receptor, upon NGF addition, results in the kinase domain being phosphorylated, resulting in subsequent recruitment of Shc1-EA protein. That recruitment results in an active B-galactosidase enzyme that is detected by addition of a chemiluminescent substrate. The human p75NTR protein was also expressed as a co-receptor for NGF.

Sequence of High affinity nerve growth factor receptor (P04629 whole entry, the tested form may be a part): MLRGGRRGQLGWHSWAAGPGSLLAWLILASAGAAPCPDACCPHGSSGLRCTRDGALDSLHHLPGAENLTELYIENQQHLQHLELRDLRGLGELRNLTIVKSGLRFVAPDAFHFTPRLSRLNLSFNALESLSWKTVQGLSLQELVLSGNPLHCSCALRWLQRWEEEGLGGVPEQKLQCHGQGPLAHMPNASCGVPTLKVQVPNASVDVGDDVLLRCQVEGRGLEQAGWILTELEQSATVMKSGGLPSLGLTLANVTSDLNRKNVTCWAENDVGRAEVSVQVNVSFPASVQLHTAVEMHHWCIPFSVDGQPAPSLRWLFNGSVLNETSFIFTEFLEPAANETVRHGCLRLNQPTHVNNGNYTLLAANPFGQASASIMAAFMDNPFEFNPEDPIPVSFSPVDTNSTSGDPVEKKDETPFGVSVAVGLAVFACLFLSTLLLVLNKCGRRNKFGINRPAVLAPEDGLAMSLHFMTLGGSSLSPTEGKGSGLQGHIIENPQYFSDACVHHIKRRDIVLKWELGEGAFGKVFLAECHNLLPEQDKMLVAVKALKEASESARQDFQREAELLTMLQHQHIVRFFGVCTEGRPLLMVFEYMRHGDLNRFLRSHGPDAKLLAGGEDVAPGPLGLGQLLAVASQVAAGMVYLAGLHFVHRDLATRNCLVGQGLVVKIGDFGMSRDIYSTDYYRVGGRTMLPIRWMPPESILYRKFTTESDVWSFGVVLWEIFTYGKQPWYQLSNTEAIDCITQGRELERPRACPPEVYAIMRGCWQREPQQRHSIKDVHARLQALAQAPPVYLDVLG

IC50: 50 nM
SMILES: Cn1ccc(-c2cc(C(=O)Nc3c(-c4ccccc4)ccc4c(C(C)(C)O)ncn34)c(F)cc2C(F)(F)F)n1
